Ends that are not written are not given here.
What was measured:
Beagle dogs = test: GLP cardiovascular telemetry study at 10 mg/kg (CRM Study No. 691429); assay type: in vivo, dog
Experimental: To obtain detailed cardiovascular information at the highest dose level tested in the 14-day dog repeated-dose toxicity study (i.e., 10 mg/kg), an additional GLP cardiovascular telemetry study in unrestrained, conscious, Beagle dogs was performed (CRM Study No. 691429). Six animals (3 males, 3 females) received vehicle in the morning and 10 mg/kg Tat-NR2B9c in the afternoon of the same day (at least 4 hours between doses). […] The female animals used in this additional cardiovascular study were obtained from the Charles River colony and were non-nave animals that had been previously used in the first cardiovascular study for Tat-NR2B9c (CRM Study No. 691106).

humans = test: Safety, Tolerability and Pharmacokinetic Study in humans: blood histamine; assay type: in vivo, human; details: for Average histamine level of subjects with >10 nmol/L / Maximum histamine level: 3.75 mg/kg
Experimental: We carried out a Safety, Tolerability and Pharmacokinetic Study of Tat-NR2B9c in humans. Subjects were either normal, healthy, non-smoking males or post-menopausal or surgically sterile female subjects with a minimum age of 18 years. The subjects were either administered Tat-NR2B9c, Lot #: 124-134-001B, or were given placebo (Phosphate Buffered Saline), Lot #: 124-134-001A, administered as an intravenous infusion (10±1 minutes). Four subjects were dosed in each of Cohorts 1 to 3, and 10 subjects were dosed in each of Cohorts 4 to 8. All 62 subjects completed the study. Treatment periods for each cohort were as follows: Cohort 1: Sep. 14, 2006; Cohort 2: Sep. 26, 2006; Cohort 3: Oct. 6, 2006; Cohort 4: Oct. 20, 2006; Cohort 5: Nov. 6, 2006; Cohort 6: Dec. 4, 2006; Cohort 7: Dec. 17, 2006; Cohort 8: Feb. 25, 2007.
During the study period, 11 blood samples were collected for pharmacokinetic analysis from each subject at the following timepoints: 0.00 (pre-dose), 0.08 (5 minutes), 0.17 to 0.25 (10 to 15 minutes, precisely at the end of each individual drug infusion), 0.33 (20 minutes), 0.50, 0.75, 1.00, 2.00, 6.00, 12.00, and 24.00 hours post-dose. In addition, 8 blood samples were collected for histamine analysis from each subject at the following timepoints: 0.00 (pre-dose), and at 0.08 (5 minutes), 0.17 (10 minutes), 0.25, 0.50, 1.00, 2.00, and 24.00 hours post-dose.

[1] = 10 minutes after start of administration
[2] = 15 minutes after start of administration

Sequence: YGRKKRRQRRRKLSSIESDV [Tat-NR2B9c]
- Time post-dose over which increases in heart rate were observed (Beagle dogs): up to 15 minutes
- Decreases in blood pressure values (Beagle dogs; individual animals at 5 to 10 minutes post-dose): up to 62%
- Time of maximum effect on heart rate (Beagle dogs; males and females): 10 min
- Average histamine level of subjects with >10 nmol/L (humans; [1]): 24.3 nmol/L
- Maximum histamine level (humans; [1]): 39.8 nmol/L
- Average histamine level of subjects with >10 nmol/L (humans; [2]): 15.3 nmol/L
- Maximum histamine level (humans; [2]): 20.3 nmol/L
- Number of Subjects with Histamine levels >10 nmol/L (humans; NA-1 0.02 mg/kg (n = 2), Day 1, 0.00 hr): 0
- Number of Subjects with Histamine levels >10 nmol/L (humans; NA-1 0.02 mg/kg (n = 2), Day 1, 0.08 hr): 0
- Number of Subjects with Histamine levels >10 nmol/L (humans; NA-1 0.02 mg/kg (n = 2), Day 1, 0.17 hr): 0
- Number of Subjects with Histamine levels >10 nmol/L (humans; NA-1 0.02 mg/kg (n = 2), Day 1, 0.25 hr): 0
- Number of Subjects with Histamine levels >10 nmol/L (humans; NA-1 0.02 mg/kg (n = 2), Day 1, 0.50 hr): 0
- Number of Subjects with Histamine levels >10 nmol/L (humans; NA-1 0.02 mg/kg (n = 2), Day 1, 1.00 hr): 0
- Number of Subjects with Histamine levels >10 nmol/L (humans; NA-1 0.02 mg/kg (n = 2), Day 1, 2.00 hr): 0
- Number of Subjects with Histamine levels >10 nmol/L (humans; NA-1 0.02 mg/kg (n = 2), Day 1, 24.00 hr): 0
- Number of Subjects with Histamine levels >10 nmol/L (humans; NA-1 0.02 mg/kg (n = 2), Day 7): 0
- Number of Subjects with Histamine levels >10 nmol/L (humans; NA-1 0.02 mg/kg (n = 2), Day 14): 0
- Number of Subjects with Histamine levels >10 nmol/L (humans; NA-1 0.02 mg/kg (n = 2), Day 28 End-of-study): 0
- Number of Subjects with Histamine levels >10 nmol/L (humans; NA-1 0.02 mg/kg (n = 2), Screening): 0
- Number of Subjects with Histamine levels >10 nmol/L (humans; NA-1 0.08 mg/kg (n = 2), Day 1, 0.00 hr): 0
- Number of Subjects with Histamine levels >10 nmol/L (humans; NA-1 0.08 mg/kg (n = 2), Day 1, 0.08 hr): 0
- Number of Subjects with Histamine levels >10 nmol/L (humans; NA-1 0.08 mg/kg (n = 2), Day 1, 0.17 hr): 0
- Number of Subjects with Histamine levels >10 nmol/L (humans; NA-1 0.08 mg/kg (n = 2), Day 1, 0.25 hr): 0
- Number of Subjects with Histamine levels >10 nmol/L (humans; NA-1 0.08 mg/kg (n = 2), Day 1, 0.50 hr): 0
- Number of Subjects with Histamine levels >10 nmol/L (humans; NA-1 0.08 mg/kg (n = 2), Day 1, 1.00 hr): 0
- Number of Subjects with Histamine levels >10 nmol/L (humans; NA-1 0.08 mg/kg (n = 2), Day 1, 2.00 hr): 0
- Number of Subjects with Histamine levels >10 nmol/L (humans; NA-1 0.08 mg/kg (n = 2), Day 1, 24.00 hr): 0
- Number of Subjects with Histamine levels >10 nmol/L (humans; NA-1 0.08 mg/kg (n = 2), Day 7): 0
- Number of Subjects with Histamine levels >10 nmol/L (humans; NA-1 0.08 mg/kg (n = 2), Day 14): 0
- Number of Subjects with Histamine levels >10 nmol/L (humans; NA-1 0.08 mg/kg (n = 2), Day 28 End-of-study): 0
- Number of Subjects with Histamine levels >10 nmol/L (humans; NA-1 0.08 mg/kg (n = 2), Screening): 0
- Number of Subjects with Histamine levels >10 nmol/L (humans; NA-1 0.20 mg/kg (n = 2), Day 1, 0.00 hr): 0
- Number of Subjects with Histamine levels >10 nmol/L (humans; NA-1 0.20 mg/kg (n = 2), Day 1, 0.08 hr): 0
- Number of Subjects with Histamine levels >10 nmol/L (humans; NA-1 0.20 mg/kg (n = 2), Day 1, 0.17 hr): 0
- Number of Subjects with Histamine levels >10 nmol/L (humans; NA-1 0.20 mg/kg (n = 2), Day 1, 0.25 hr): 0
- Number of Subjects with Histamine levels >10 nmol/L (humans; NA-1 0.20 mg/kg (n = 2), Day 1, 0.50 hr): 0
- Number of Subjects with Histamine levels >10 nmol/L (humans; NA-1 0.20 mg/kg (n = 2), Day 1, 1.00 hr): 0
- Number of Subjects with Histamine levels >10 nmol/L (humans; NA-1 0.20 mg/kg (n = 2), Day 1, 2.00 hr): 0
- Number of Subjects with Histamine levels >10 nmol/L (humans; NA-1 0.20 mg/kg (n = 2), Day 1, 24.00 hr): 0
- Number of Subjects with Histamine levels >10 nmol/L (humans; NA-1 0.20 mg/kg (n = 2), Day 7): 0
- Number of Subjects with Histamine levels >10 nmol/L (humans; NA-1 0.20 mg/kg (n = 2), Day 14): 0
- Number of Subjects with Histamine levels >10 nmol/L (humans; NA-1 0.20 mg/kg (n = 2), Day 28 End-of-study): 0
- Number of Subjects with Histamine levels >10 nmol/L (humans; NA-1 0.20 mg/kg (n = 2), Screening): 0
- Number of Subjects with Histamine levels >10 nmol/L (humans; NA-1 0.375 mg/kg (n = 8), Day 1, 0.00 hr): 0
- Number of Subjects with Histamine levels >10 nmol/L (humans; NA-1 0.375 mg/kg (n = 8), Day 1, 0.08 hr): 0
- Number of Subjects with Histamine levels >10 nmol/L (humans; NA-1 0.375 mg/kg (n = 8), Day 1, 0.17 hr): 0
- Number of Subjects with Histamine levels >10 nmol/L (humans; NA-1 0.375 mg/kg (n = 8), Day 1, 0.25 hr): 0
- Number of Subjects with Histamine levels >10 nmol/L (humans; NA-1 0.375 mg/kg (n = 8), Day 1, 0.50 hr): 0
- Number of Subjects with Histamine levels >10 nmol/L (humans; NA-1 0.375 mg/kg (n = 8), Day 1, 1.00 hr): 0
- Number of Subjects with Histamine levels >10 nmol/L (humans; NA-1 0.375 mg/kg (n = 8), Day 1, 2.00 hr): 0
- Number of Subjects with Histamine levels >10 nmol/L (humans; NA-1 0.375 mg/kg (n = 8), Day 1, 24.00 hr): 0
- Number of Subjects with Histamine levels >10 nmol/L (humans; NA-1 0.375 mg/kg (n = 8), Day 7): 0
- Number of Subjects with Histamine levels >10 nmol/L (humans; NA-1 0.375 mg/kg (n = 8), Day 14): 0
- Number of Subjects with Histamine levels >10 nmol/L (humans; NA-1 0.375 mg/kg (n = 8), Day 28 End-of-study): 0

Source: US10046060B2, “Co-administration of an agent linked to an internalization peptide with an anti-inflammatory” (NoNO Inc., priority 2007, dated 2018)
